Test results taken from ChEMBL document CHEMBL5385886, “Design, synthesis and evaluation of nitric oxide releasing derivatives of 2,4-diaminopyrimidine as novel FAK inhibitors for intervention of metastatic triple-negative breast cancer” (Eur J Med Chem, 2023).
The source made the active and inactive calls. No cut-off for these calls is given here.

Experiments:
MDA-MB-231 [1] = assay: Antiproliferative activity against human MDA-MB-231 cells assessed as inhibition of cell proliferation at 5 uM incubated for 72 hrs by MTT assay relative to control; format: functional
MDA-MB-157 = assay: Antiproliferative activity against human MDA-MB-157 cells assessed as inhibition of cell proliferation incubated for 72 hrs by MTT assay; format: functional, cell-based; details: MDA-MB-157, 72 h
MDA-MB-231 [2] = assay: Antiproliferative activity against human MDA-MB-231 cells assessed as inhibition of cell proliferation incubated for 72 hrs by MTT assay; format: functional, cell-based; details: MDA-MB-231, 72 h
MDA-MB-453 = assay: Antiproliferative activity against human MDA-MB-453 cells assessed as inhibition of cell proliferation incubated for 72 hrs by MTT assay; format: functional, cell-based; details: MDA-MB-453, 72 h
Focal adhesion kinase 1 = Focal adhesion kinase 1 (Homo sapiens, UniProt Q05397); assay: Inhibition of FAK (unknown origin)
MDA-MB-231 [3] = assay: Induction of NO production in human MDA-MB-231 cells at 4 uM incubated for 72 hrs by DAF-FM-DA dye based flow cytometry analysis; format: functional, cell-based
MDA-MB-231 [4] = assay: Antiproliferative activity against human MDA-MB-231 cells assessed as inhibition of cell proliferation at 5 to 20 uM incubated for 72 hrs by MTT assay; format: functional, cell-based; details: dose 5-20 µM
MDA-MB-231 [5] = assay: Antiproliferative activity against human MDA-MB-231 cells assessed as inhibition of cell proliferation incubated for 72 hrs in presence of 2-(4-((5-chloro-4-((2-(methylcarbamoyl)phenyl)amino)pyrimidin-2-yl)amino)phenyl)acetic acid by MTT assay; format: functional, cell-based; details: MDA-MB-231, 72 h

Sequence of Focal adhesion kinase 1 (Q05397 whole entry): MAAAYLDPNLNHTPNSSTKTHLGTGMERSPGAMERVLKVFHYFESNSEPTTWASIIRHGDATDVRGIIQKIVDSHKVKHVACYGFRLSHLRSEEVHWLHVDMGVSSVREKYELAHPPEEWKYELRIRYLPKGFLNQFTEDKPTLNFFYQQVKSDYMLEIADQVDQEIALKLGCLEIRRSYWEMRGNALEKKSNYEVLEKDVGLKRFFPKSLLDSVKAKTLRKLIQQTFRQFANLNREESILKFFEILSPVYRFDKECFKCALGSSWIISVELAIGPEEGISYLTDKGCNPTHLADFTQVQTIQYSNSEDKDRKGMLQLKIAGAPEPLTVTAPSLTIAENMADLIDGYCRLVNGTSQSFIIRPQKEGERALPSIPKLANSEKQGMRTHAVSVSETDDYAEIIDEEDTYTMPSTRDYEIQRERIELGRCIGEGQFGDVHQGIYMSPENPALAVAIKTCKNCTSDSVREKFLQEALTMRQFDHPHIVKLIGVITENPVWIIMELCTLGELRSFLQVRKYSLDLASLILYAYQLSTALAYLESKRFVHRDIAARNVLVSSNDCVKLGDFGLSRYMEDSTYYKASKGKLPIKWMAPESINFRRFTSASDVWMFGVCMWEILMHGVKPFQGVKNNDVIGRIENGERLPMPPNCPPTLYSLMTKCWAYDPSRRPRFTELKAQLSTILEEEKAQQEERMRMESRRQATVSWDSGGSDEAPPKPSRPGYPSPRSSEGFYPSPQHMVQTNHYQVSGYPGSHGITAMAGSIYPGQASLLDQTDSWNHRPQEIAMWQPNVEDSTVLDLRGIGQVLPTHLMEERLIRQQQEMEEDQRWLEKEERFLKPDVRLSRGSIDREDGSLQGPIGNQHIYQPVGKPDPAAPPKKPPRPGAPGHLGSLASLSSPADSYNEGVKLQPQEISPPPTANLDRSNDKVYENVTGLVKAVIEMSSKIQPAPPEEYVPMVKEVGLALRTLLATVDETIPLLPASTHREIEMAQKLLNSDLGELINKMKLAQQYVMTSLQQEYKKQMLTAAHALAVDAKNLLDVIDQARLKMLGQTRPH

Compound	inhibition at 5 µM (MDA-MB-231 [1])	IC50 (MDA-MB-157)	IC50 (MDA-MB-231 [2])	IC50 (MDA-MB-453)	IC50 (Focal adhesion kinase 1)	Activity (MDA-MB-231 [3])	Activity (MDA-MB-231 [4])	IC50 (MDA-MB-231 [5])
CNC(=O)c1ccccc1Nc1nc(Nc2ccc(CC(=O)OCCCCCOc3no[n+]([O-])c3S(=O)(=O)c3ccccc3)cc2)ncc1Cl	> 92%	235 nM	130 nM	221 nM	107 nM	Active		
CC1(C)N(O)C(c2ccc(C(=O)O)cc2)=[N+]([O-])C1(C)C							inactive	
O=S(=O)(c1ccccc1)c1c(OCCCCCCCCO)no[n+]1[O-]			1500 nM					1220 nM
CNC(=O)c1ccccc1Nc1nc(Nc2ccc(CC(=O)OCCCCCCCOc3no[n+]([O-])c3S(=O)(=O)c3ccccc3)cc2)ncc1Cl	> 92%	188 nM	129 nM	246 nM	31.4 nM	Active		
